A short description of assay [1]: Cytotoxicity against human ES2 cells after 48 hrs by MTT assay. Conditions: ES-2, 48 h. On the technique in general: Formazan colour is commonly taken as a measure of viable cells.
A further assay relates to MDA-MB-231. Nature of the assay: cells. Conditions: Homo sapiens, MDA-MB-231, 48 h.
Assay [2] addresses Histone deacetylase 1/3/5/8 (Homo sapiens, UniProt Q13547+O15379+Q9UQL6+Q9BY41). In words: Inhibition of HDAC1/3/5/8 in human HeLa cell extract using Boc-Lys-(acetyl)-AMC as substrate incubated for 5 mins prior to substrate addition measured after 30 mins by fluorometric analysis. Format: protein assay.
The target of assay [3] is T1, Aminopeptidase N (Sus scrofa, UniProt P15145).
T1 sequence (P15145 whole entry): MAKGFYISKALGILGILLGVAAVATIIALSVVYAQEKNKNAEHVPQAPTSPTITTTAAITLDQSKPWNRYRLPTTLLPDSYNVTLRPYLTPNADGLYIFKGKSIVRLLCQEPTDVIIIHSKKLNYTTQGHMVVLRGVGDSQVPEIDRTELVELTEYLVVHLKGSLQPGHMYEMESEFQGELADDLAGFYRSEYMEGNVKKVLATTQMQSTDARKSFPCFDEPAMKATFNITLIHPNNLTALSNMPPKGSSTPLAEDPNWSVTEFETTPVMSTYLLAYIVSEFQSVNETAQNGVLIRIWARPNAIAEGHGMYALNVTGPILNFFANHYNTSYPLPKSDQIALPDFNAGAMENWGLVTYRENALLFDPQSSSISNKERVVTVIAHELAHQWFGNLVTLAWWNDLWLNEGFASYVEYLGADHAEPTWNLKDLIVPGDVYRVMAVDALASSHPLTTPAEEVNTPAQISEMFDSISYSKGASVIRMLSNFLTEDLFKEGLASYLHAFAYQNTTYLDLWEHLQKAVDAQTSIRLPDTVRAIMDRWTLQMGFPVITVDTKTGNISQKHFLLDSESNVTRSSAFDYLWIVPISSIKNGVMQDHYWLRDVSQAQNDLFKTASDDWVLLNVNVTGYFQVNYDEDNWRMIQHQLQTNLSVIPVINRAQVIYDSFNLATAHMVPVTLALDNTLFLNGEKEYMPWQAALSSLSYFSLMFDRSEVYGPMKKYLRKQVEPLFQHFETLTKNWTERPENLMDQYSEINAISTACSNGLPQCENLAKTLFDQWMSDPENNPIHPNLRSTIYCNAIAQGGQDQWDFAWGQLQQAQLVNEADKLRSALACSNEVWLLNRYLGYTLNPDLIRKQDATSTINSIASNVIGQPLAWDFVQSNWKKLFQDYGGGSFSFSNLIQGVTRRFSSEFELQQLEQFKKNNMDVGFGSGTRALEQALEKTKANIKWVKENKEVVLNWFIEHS
Nature of the assay: Inhibition of pig kidney microsome aminopeptidase-N using L-leu-p-nitroanilide as substrate incubated for 5 mins prior to substrate addition measured after 30 mins by spectrophotometric analysis.

Assay [4] has as its target Aminopeptidase N (Homo sapiens, UniProt P15144). In words: Inhibition of aminopeptidase-N in human ES2 cells using L-leu-p-nitroanilide as substrate incubated for 5 mins prior to substrate addition measured after 30 mins by spectrophotometric analysis. Format: cell-based.

20 compounds from ChEMBL document CHEMBL2375252, “Novel indoline-2,3-dione derivatives as inhibitors of aminopeptidase N (APN)” (Bioorg Med Chem, 2013) can be followed below.

SMILES strings stand for the structures. Where only a bound is given, the exact number is not on record here.

Usually IC50 stands for the concentration that inhibits the measured activity by half.

Aminopeptidase N (Homo sapiens, UniProt P15144), sequence (P15144 whole entry): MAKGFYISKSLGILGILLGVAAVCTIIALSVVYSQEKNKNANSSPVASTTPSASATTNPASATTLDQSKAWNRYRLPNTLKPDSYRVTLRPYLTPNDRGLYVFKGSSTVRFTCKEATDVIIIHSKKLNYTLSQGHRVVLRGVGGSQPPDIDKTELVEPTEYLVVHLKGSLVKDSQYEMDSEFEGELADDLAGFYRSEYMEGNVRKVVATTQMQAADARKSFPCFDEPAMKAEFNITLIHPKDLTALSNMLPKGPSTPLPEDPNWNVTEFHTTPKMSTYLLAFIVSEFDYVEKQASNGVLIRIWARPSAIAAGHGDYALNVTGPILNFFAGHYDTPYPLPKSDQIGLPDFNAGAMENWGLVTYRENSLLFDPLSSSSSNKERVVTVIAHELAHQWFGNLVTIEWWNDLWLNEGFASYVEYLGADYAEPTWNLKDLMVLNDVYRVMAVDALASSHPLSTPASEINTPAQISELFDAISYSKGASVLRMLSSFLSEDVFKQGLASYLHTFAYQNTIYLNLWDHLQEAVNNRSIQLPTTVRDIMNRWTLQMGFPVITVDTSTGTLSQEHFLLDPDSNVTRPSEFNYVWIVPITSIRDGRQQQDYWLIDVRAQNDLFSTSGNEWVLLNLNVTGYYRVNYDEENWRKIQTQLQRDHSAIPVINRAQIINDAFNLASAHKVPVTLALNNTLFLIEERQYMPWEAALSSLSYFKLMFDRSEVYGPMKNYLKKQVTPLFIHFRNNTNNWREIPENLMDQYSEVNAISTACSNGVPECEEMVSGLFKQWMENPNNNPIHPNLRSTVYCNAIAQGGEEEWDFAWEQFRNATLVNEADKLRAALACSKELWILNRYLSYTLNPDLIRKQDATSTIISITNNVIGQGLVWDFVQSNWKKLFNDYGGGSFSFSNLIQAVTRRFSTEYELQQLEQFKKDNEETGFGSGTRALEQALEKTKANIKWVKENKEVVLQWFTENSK
Description for MDA-MB-231: Cytotoxicity against human MDA-MB-231 cells after 48 hrs by MTT assay

With `O=C(CN1C(=O)C2(OCCCCO2)c2cc(Br)ccc21)NO`, the IC50 in assay [1] was 409 µM; in the assay with MDA-MB-231, 32.9 µM; in assay [2] it was more than 100 µM; at Aminopeptidase N [3], 0.086 µM; against Aminopeptidase N [4], 12.1 µM.

`O=C(CN1C(=O)C2(OCCCO2)c2ccccc21)NO` returned an IC50 at Aminopeptidase N [3] of 266 µM.

Turning to `O=C(CN1C(=O)C2(OCCCO2)c2cc(F)ccc21)NO`, the IC50 in assay [1] is 457 µM; in the assay with MDA-MB-231 it was 576 µM; in assay [2], more than 100 µM; at Aminopeptidase N [3] it was 6.71 µM; on Aminopeptidase N [4] it was 97.5 µM.

For `O=C(CN1C(=O)C2(OCCCO2)c2cc(Br)ccc21)NO`, the half-maximal inhibitory concentration (IC50) in assay [1] is 137 µM; in the assay on MDA-MB-231, 55.1 µM; in assay [2], more than 100 µM; on Aminopeptidase N [3], 3.4 µM; against Aminopeptidase N [4] it was 19.7 µM.

Turning to `O=C(CN1C(=O)C2(OCCO2)c2cc(F)ccc21)NO`, the IC50 in assay [1] was 142 µM; in the assay on MDA-MB-231, 180 µM; in assay [2] it was more than 100 µM; at Aminopeptidase N [3] it was 5.3 µM; at Aminopeptidase N [4] it was 16.2 µM.

In the case of `O=C(CN1C(=O)C2(OCCCCO2)c2cc(Cl)ccc21)NO`, the IC50 in assay [1] is 212 µM; in the assay with MDA-MB-231, 91.5 µM; in assay [2], more than 100 µM; at Aminopeptidase N [3] it was 0.074 µM; on Aminopeptidase N [4] it was 3.12 µM.

For `O=C(CN1C(=O)C2(OCCO2)c2cc(Br)ccc21)N[C@@H](Cc1ccccc1)C(=O)NO`, the IC50 against Aminopeptidase N [3] amounted to 26.4 µM.

Take `O=C(CN1C(=O)C2(OCCO2)c2ccccc21)NO`: the IC50 on Aminopeptidase N [3] turned out to be 209 µM.

The compound `O=C(CN1C(=O)C2(OCCO2)c2cc(Br)ccc21)NC(C(=O)NO)c1ccccc1` (stereo not drawn) showed an IC50 at Aminopeptidase N [3] of more than 1000 µM.

For `O=C(CN1C(=O)C2(OCCCCO2)c2cc(F)ccc21)NO`, the IC50 in assay [1] is 553 µM; in the assay with MDA-MB-231, 114 µM; in assay [2], more than 100 µM; on Aminopeptidase N [3], 4.06 µM; on Aminopeptidase N [4] it was 15.2 µM.

For the compound `O=C(CN1C(=O)C2(OCCO2)c2cc(Br)ccc21)NO`, the IC50 in assay [2] was more than 100 µM.

For `CC(C)[C@H](NC(=O)CN1C(=O)C2(OCCO2)c2cc(Br)ccc21)C(=O)NO`, at Aminopeptidase N [3], the 50% inhibitory concentration (IC50) was found to be 226 µM.

Take `O=C(CNC(=O)CN1C(=O)C2(OCCO2)c2cc(Br)ccc21)NO`: the IC50 was found to be 0.33 µM in assay [2] and 6.6 µM at Aminopeptidase N [3].

Compound `Cc1ccc2c(c1)C1(OCCCO1)C(=O)N2CC(=O)NO` yielded an IC50 on Aminopeptidase N [3] of 3.33 µM.

`CC[C@H](C)[C@H](NC(=O)CN1C(=O)C2(OCCO2)c2cc(Br)ccc21)C(=O)NO` gave an IC50 on Aminopeptidase N [3] of 631 µM.

Take `Cc1ccc2c(c1)C1(OCCO1)C(=O)N2CC(=O)NO`: the IC50 against Aminopeptidase N [3] turned out to be 2.63 µM.

For the compound `O=C(CN1C(=O)C2(OCCO2)c2cc(Cl)ccc21)NO`, the IC50 in assay [1] was 167 µM; in the assay with MDA-MB-231, 177 µM; in assay [2], more than 100 µM; on Aminopeptidase N [3], 0.31 µM; against Aminopeptidase N [4], 9.58 µM.

Turning to `CC(C)C[C@H](NC(=O)[C@@H](O)[C@H](N)Cc1ccccc1)C(=O)O` [UBENIMEX], in assay [1], half-maximal inhibition (IC50) required 632 µM.

Take `O=C(CN1C(=O)C2(OCCCO2)c2cc(Cl)ccc21)NO`: the IC50 in assay [1] is 233 µM; with MDA-MB-231, 259 µM; in assay [2] it was more than 100 µM; on Aminopeptidase N [3], 1.3 µM; against Aminopeptidase N [4] it was 10.9 µM.

Consider `CC(C)C[C@H](NC(=O)CN1C(=O)C2(OCCO2)c2cc(Br)ccc21)C(=O)NO`, for which the IC50 on Aminopeptidase N [3] came out at 22.5 µM.
